Laboratory results: patent publication US20220372585A1, “Sensors for Aromatic Compounds and Methods of Making and Using Same” (Washington University, priority 2021, published 2022)
“And” between values parts separate entries of the source, which are not always exact repeats. Identical values can stand only once. “Also recorded” adds a separate entry of the source.

Experiments:
Assay type in all cases: cell-based, E. coli
E274Q+T14G TyrR = target: T1, E274Q+T14G TyrR (Escherichia coli, UniProt P07604, E274Q/T14G); assay: PtyrP-GFP reporter, E274Q+T14G TyrR (pAGR156) in EcN
T1 construct: expressed in transfected cells; host or cells: E. coli Nissle 1917 (EcN), plasmid pAGR156
T1 sequence (P07604 whole entry T14G/E274Q): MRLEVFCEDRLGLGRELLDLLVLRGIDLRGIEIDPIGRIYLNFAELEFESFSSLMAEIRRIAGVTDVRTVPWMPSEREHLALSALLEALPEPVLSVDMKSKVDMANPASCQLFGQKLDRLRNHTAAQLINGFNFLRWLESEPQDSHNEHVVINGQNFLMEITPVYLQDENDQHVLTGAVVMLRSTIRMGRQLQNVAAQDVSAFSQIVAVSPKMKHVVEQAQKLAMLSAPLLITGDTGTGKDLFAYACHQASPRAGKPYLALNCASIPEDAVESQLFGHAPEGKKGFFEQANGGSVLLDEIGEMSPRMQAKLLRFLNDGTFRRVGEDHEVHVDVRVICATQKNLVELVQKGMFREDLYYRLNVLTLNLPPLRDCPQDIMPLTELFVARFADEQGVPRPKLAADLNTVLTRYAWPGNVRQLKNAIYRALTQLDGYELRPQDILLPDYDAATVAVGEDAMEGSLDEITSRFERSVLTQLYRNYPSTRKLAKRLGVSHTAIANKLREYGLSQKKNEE
Procedure: (§1) Everything but (Eb) medium was prepared by supplementing M9 minimal medium with 1 mM MgSO4, […]), 0.4% w/v glucose, and all non-aromatic amino acids (0.8 mM alanine, 5 mM arginine, 0.4 mM asparagine, 0.4 mM aspartate, 0.1 mM cysteine, 0.6 mM glutamate, 0.6 mM glutamine, 0.8 mM glycine, 0.2 mM histidine, 0.4 mM isoleucine, 0.8 mM leucine, 0.4 mM lysine, 0.2 mM methionine, 0.4 mM proline, 10 mM serine, 0.4 mM threonine, and 0.6 mM valine). […] Experimental cultures were prepared by diluting overnight cultures 200× into 0.6 mL fresh Eb medium supplemented with the respective ligands (Phe and Tyr) in 2 mL 96-deep well plates (Eppendorf, Hamburg, Germany). Cultures were grown for 8 h at 37° C. and 250 rpm before sampled for fluorimetry or flow cytometry analysis. All medium was supplemented with the relevant antibiotics for plasmid maintenance (34 mg/ml chloramphenicol and 100 mg/ml spectinomycin).
(§2) […] culture samples were collected and transferred to 96-well assay microplates (clear, flat bottom black, Greiner Bio-One). The fluorescence and culture absorbance (Abs) were measured using a Tecan microplate reader (Infinite M200 Pro) as previously described. The fluorescence of GFP was measured with an excitation at 483 nm and emission at 530 nm. The Abs of the samples was measured at 600 nm. The measured fluorescence was normalized by dividing by the Abs and subtracting the same ratio obtained from non-fluorescent wild-type cells (Equation 1).
(§3) Flow cytometry was performed as previously described. […] Cytometry data was gated by forward and side scatter.

[1] = target: T2, E274Q TyrR with T14V and D103S combined (Escherichia coli, UniProt P07604, D103S/E274Q/T14V); assay: PtyrP-GFP reporter, E274Q TyrR with both T14V and D103S mutations combined; settings: both mutations (T14V, D103S) combined in E274Q TyrR
T2 construct: tyrR (WT); expressed in transfected cells; host or cells: E. coli Nissle 1917 (EcN)
T2 sequence (P07604 whole entry T14V/D103S/E274Q): as the sequence (P07604 whole entry T14G/E274Q) above, with G14V, D103S counted along it
Procedure: as §1, with “All medium was supplemented with the relevant antibiotics for plasmid maintenance (34 mg/ml chloramphenicol and 100 mg/ml spectinomycin).” left out
as §2, with “1). […]” for “1).”

E274Q+C7V TyrR = target: T3, E274Q+C7V TyrR (Escherichia coli, UniProt P07604, C7V/E274Q); assay: PtyrP-GFP reporter, E274Q+C7V TyrR (pAGR160) in EcN
T3 construct: expressed in transfected cells; host or cells: E. coli Nissle 1917 (EcN), plasmid pAGR160
T3 sequence (P07604 whole entry C7V/E274Q): as the sequence (P07604 whole entry T14G/E274Q) above, with C7V, G14T counted along it
Procedure: as §1, §2, §3

E274Q TyrR = target: T4, E274Q TyrR (Escherichia coli, UniProt P07604, E274Q); assay: cell-based
T4 construct: expressed in transfected cells; host or cells: E. coli Nissle 1917 (EcN), plasmid pAGR102
T4 sequence (P07604 whole entry E274Q): as the sequence (P07604 whole entry T14G/E274Q) above, with G14T counted along it
Procedure: as §1, §2, §3

wild-type TyrR = target: T5, wild-type TyrR (Escherichia coli, UniProt P07604); assay: cell-based
T5 construct: tyrR (WT); expressed in transfected cells; host or cells: E. coli Nissle 1917 (EcN)
T5 sequence (P07604 whole entry): as the sequence (P07604 whole entry T14G/E274Q) above, with G14T, Q274E counted along it
Procedure: as §1, §2, §3

E274Q+T14V TyrR = target: T6, E274Q+T14V TyrR (Escherichia coli, UniProt P07604, E274Q/T14V); assay: cell-based
T6 construct: expressed in transfected cells; host or cells: E. coli Nissle 1917 (EcN), plasmid pAGR157
T6 sequence (P07604 whole entry T14V/E274Q): as the sequence (P07604 whole entry T14G/E274Q) above, with G14V counted along it
Procedure: as §1, §2, §3

E274Q+D103S TyrR = target: T7, E274Q+D103S TyrR (Escherichia coli, UniProt P07604, D103S/E274Q); assay: cell-based
T7 construct: expressed in transfected cells; host or cells: E. coli Nissle 1917 (EcN), plasmid pAGR159
T7 sequence (P07604 whole entry D103S/E274Q): as the sequence (P07604 whole entry T14G/E274Q) above, with G14T, D103S counted along it
Procedure: as §1, §2, §3

R10F TyrR = target: T8, R10F TyrR (Escherichia coli, UniProt P07604, R10F); assay: cell-based; settings: ligand alone, listed as Phe
T8 construct: expressed in transfected cells; host or cells: E. coli Nissle 1917 (EcN), plasmid pAGR473
T8 sequence (P07604 whole entry R10F): as the sequence (P07604 whole entry T14G/E274Q) above, with R10F, G14T, Q274E counted along it
Procedure: as §1, §2, §3

E274Q+D103H TyrR = target: T9, E274Q+D103H TyrR (Escherichia coli, UniProt P07604, D103H/E274Q); assay: PtyrP-GFP reporter, E274Q+D103H TyrR (pAGR158) in EcN
T9 construct: expressed in transfected cells; host or cells: E. coli Nissle 1917 (EcN), plasmid pAGR158
T9 sequence (P07604 whole entry D103H/E274Q): as the sequence (P07604 whole entry T14G/E274Q) above, with G14T, D103H counted along it
Procedure: as §1, §2, §3

E274Q+L11G TyrR = target: T10, E274Q+L11G TyrR (Escherichia coli, UniProt P07604, E274Q/L11G); assay: PtyrP-GFP reporter, E274Q+L11G TyrR (pAGR155) in EcN
T10 construct: expressed in transfected cells; host or cells: E. coli Nissle 1917 (EcN), plasmid pAGR155
T10 sequence (P07604 whole entry L11G/E274Q): as the sequence (P07604 whole entry T14G/E274Q) above, with L11G, G14T counted along it
Procedure: as §1, §2, §3

[2] = E274Q+T14G TyrR, pAGR156, FIG. 10C, 8 h
[3] = E274Q+C7V TyrR, pAGR160, FIG. 10A, 8 h
[4] = wild-type TyrR, pAGR010, FIG. 1C, 8 h
[5] = E274Q+D103H TyrR, pAGR158, FIG. 10D, 8 h
[6] = E274Q+L11G TyrR, pAGR155, FIG. 10B, 8 h

Which EC50 (E274Q+T14G TyrR) does the source give for `N[C@@H](Cc1ccccc1)C(=O)O` [Phenylalanine, phenylalanine] here?
The EC50 was 37 µM.

And the Fmax (E274Q+T14G TyrR; [2])?
The Fmax was 12400.

What about the Fmin (E274Q+T14G TyrR; [2]) of the same molecule?
The Fmin was 1430.

What about the “n (Hill coefficient)” value (E274Q+T14G TyrR; [2]) of the same molecule?
Its value is 2.4.

What about the “response of PtyrP” value [1] of the same molecule?
Its value is “eliminated”.

What about the EC50 (E274Q+C7V TyrR) of the same molecule?
The EC50 was 46 µM.

And the Fmax (E274Q+C7V TyrR; [3])?
Its Fmax is 10800.

What about the Fmin (E274Q+C7V TyrR; [3]) of the same molecule?
Its Fmin is 1120.

What about the “n (Hill coefficient)” value (E274Q+C7V TyrR; [3]) of the same molecule?
Its value is 2.5.

What about the “fold induction of PtyrP” value (E274Q TyrR) of the same molecule?
The value was 16 fold.

And the EC50 (E274Q TyrR; KA (half maximal constant), pAGR102, FIG. 2C, 2D, 8 h)?
The EC50 was 40 µM and 42 µM.

And the Fmax (E274Q TyrR; pAGR102, FIG. 2C, 2D, 8 h)?
The Fmax was 12800.

And the Fmin (E274Q TyrR; pAGR102, FIG. 2C, 2D, 8 h)?
Its Fmin is 982.

What about the “n (Hill coefficient)” value (E274Q TyrR; pAGR102, FIG. 2C, 2D, 8 h) of the same molecule?
The value was 2.

And the “fold induction of PtyrP” value (wild-type TyrR; overexpression of wild-type TyrR)?
The value was 4 fold.

What about the Fmax (wild-type TyrR; [4]) of the same molecule?
The Fmax was 10500.

What about the Fmin (wild-type TyrR; [4]) of the same molecule?
The Fmin was 2900.

And the “n (Hill coefficient)” value (wild-type TyrR; [4])?
Its value is 5.5.

What about the EC50 (wild-type TyrR; wild-type TyrR, pAGR010, FIG. 1C, 8 h, read-out: KA (half maximal constant)) of the same molecule?
The EC50 was 73 µM.

What about the EC50 (E274Q+T14V TyrR; KA (half maximal constant), pAGR157, FIG. 2C, 2E, 8 h) of the same molecule?
The EC50 was 80 µM and 83 µM.

And the “KA relative to the E274Q mutant” value (E274Q+T14V TyrR; higher than E274Q)?
The value was 2 fold.

And the Fmax (E274Q+T14V TyrR; pAGR157, FIG. 2C, 2E, 8 h)?
Its Fmax is 7560.

And the Fmin (E274Q+T14V TyrR; pAGR157, FIG. 2C, 2E, 8 h)?
Its Fmin is 814.

What about the “n (Hill coefficient)” value (E274Q+T14V TyrR; pAGR157, FIG. 2C, 2E, 8 h) of the same molecule?
Its value is 1.4.

What about the EC50 (E274Q+D103S TyrR; KA (half maximal constant), pAGR159, FIG. 2C, 2F, 8 h) of the same molecule?
The EC50 was 130 µM and 128 µM.

What about the “KA relative to the E274Q mutant” value (E274Q+D103S TyrR; higher than E274Q) of the same molecule?
The value was 3 fold.

What about the Fmax (E274Q+D103S TyrR; pAGR159, FIG. 2C, 2F, 8 h) of the same molecule?
The Fmax was 10700.

What about the Fmin (E274Q+D103S TyrR; pAGR159, FIG. 2C, 2F, 8 h) of the same molecule?
The Fmin was 1310.

And the “n (Hill coefficient)” value (E274Q+D103S TyrR; pAGR159, FIG. 2C, 2F, 8 h)?
The value was 0.7.

And the “response of PtyrP” value (R10F TyrR)?
The value was “lack of response; also recorded: no significant response”.

What about the EC50 (E274Q+D103H TyrR) of the same molecule?
Its EC50 is 110 µM.

And the Fmax (E274Q+D103H TyrR; [5])?
The Fmax was 11800.

And the Fmin (E274Q+D103H TyrR; [5])?
The Fmin was 2150.

And the “n (Hill coefficient)” value (E274Q+D103H TyrR; [5])?
The value was 1.

What about the EC50 (E274Q+L11G TyrR) of the same molecule?
Its EC50 is 45 µM.

And the Fmax (E274Q+L11G TyrR; [6])?
The Fmax was 12900.

What about the Fmin (E274Q+L11G TyrR; [6]) of the same molecule?
The Fmin was 5570.

And the “n (Hill coefficient)” value (E274Q+L11G TyrR; [6])?
The value was 2.2.
